Laboratory results reported in patent US20150285789A1, “ASSAYS, SYSTEMS, AND METHODS FOR OBTAINING PERSONALIZED ANABOLIC PROFILES” (BOSTON MEDICAL CENTER CORPORATION, priority 2012, published 2015).
Entries after “also recorded” stand apart in the source; their conditions may differ.

Columns and labels:
C2C12 cells = test: High-throughput screen for small molecules that augment BMP-2 induced ALP expression (osteoblast conversion); format: cell-based, mouse; conditions: DM + BMP-2 + compound at target concentration 1 μM, 72 h, duplicate; ImageJ, Digilab and visual inspection analyses
Experimental: The level of alkaline phosphatase (ALP) activity measured colorimetrically was scored in all wells using three criteria (see Exemplary materials and methods in the Examples section). […] ALP intensity images were acquired using a Digilab Plate reader. Images were analyzed using three independent criteria and considered for secondary screening and validation in the MC3T3 pre-osteoblast cell line Enhancement of the mRNA and protein levels of the mature osteoblast markers RunX2 and osterix was tested. *Plates were run in duplicate.
C2C12 cells were plated at 750 cells per well in a 384-square well plate and were allowed to adhere for 24 h in growth media (GM). […] After 72 h, cells were fixed and stained for alkaline phosphatase (ALP) and DAPI for nuclei visualization. […] It was next sought to screen a larger set of small molecules from more diverse backgrounds to identify enhancement of osteoblast conversion.
Cell culture: C2C12. The C2C12 myoblast cell line (ATCC) was maintained in growth medium (GM) that consisted of high glucose DMEM (Gibco), 10% fetal bovine serum (Gibco), and 1% pen/strep (Invitrogen). […] Negative controls were switched to DM but only received 20 mM acetic acid. Cells were passaged approximately every two days and were kept below 70% con-fluency, as per manufacturer's instructions. MC3T3-E1. MC3T3-E1 subclone 4 pre-osteoblast cells (ATCC #CRL-2593) were maintained in minimum essential medium, alpha modification (Invitrogen #A10490-01) containing 10% FBS and 1% penicillin/streptomycin. […] All cell lines used were maintained in a 37° C. incubator at 5% CO2.
384-square well plates (BD) were used for primary screening. PBS was added to the outermost wells to reduce edge effects. In each plate, 40 wells were used as positive controls, 28 wells were used as negative controls, and the center 240 wells were used for compound testing. All plates were screened in duplicate. The inner 308 wells received 750 cells per well and were allowed to adhere in GM for 24 h. GM was then removed, wells were washed once with PBS, and DM was added to the inner 308 wells. Negative control wells received DM. […] DMSO was used as the vehicle for compound addition in this study. DMSO was also added to positive and negative control wells in equimolar amounts.
Cells were initially fixed with a fixative solution that consisted of a 3:10:26 ratio mixture of 37% formaldehyde: citrate: acetone. Colorimetric detection of osteoblasts was achieved using the alkaline phosphatase (ALP) kit obtained from Sigma-Aldrich (Catalog #86C). Cell number was determined based on nuclei staining with DAPI nucleic acid stain as per manufacturer's instructions (Invitrogen).
Well images identifying ALP+ cells were acquired using a MIAS-2 plate reader, as per manufacturer's instructions (Digilab, Holliston, Mass.).
Acquired images were assessed using three different search strategies (ImageJ software, Digilab software, and systematic scanning by eye); each having different sensitivities and specificities with regard to the assay.
Well images were opened with the image software platform ImageJ. Images were normalized on a per plate basis and, since ALP positive cells become darker in a gray scale image, the image darkness was assessed. Images were analyzed using an Area Fraction method whereby a minimum pixel darkness threshold was applied for all image wells. All pixels that were as dark or darker than the threshold applied were converted to black. […] The binary image was then assessed to see percentage of pixels of the image that were black (i.e. Area Fraction). Average Area Fraction from duplicate compound wells was divided by average duplicate nuclei count (as measured by DAPI count in ImageJ) to get Area Fraction on a per-cell basis. This ratio (Area Fraction: Nuclei count) was then compared to positive control wells.
Well images were analyzed using eaZYX Image Analyzer software (Digilab, Holliston, Mass.).

MC3T3 cells = test: TGFβ1 mediated inhibition of osteoblast differentiation, qRT-PCR of Runx2, Osx and Smad 7; format: cell-based, mouse
Experimental: MC3T3 cells were treated with media containing 1 ng/mL of TGFβ1 for 24 h and then the media were replaced with BMP-2 or BMP-2 with 100 ng/mL rapamycin. RNA was collected 24 h afterwards and analyzed by qRT-PCR and the ΔΔCT method. […] Shown are representative results (average of duplicates) of at least three independent experiments.
Total RNA was extracted by the TRIzol method as recommended by the manufacturer (Invitrogen). Isolated RNA was cleaned up using the Rneasy Kit (Qiagen) and 500 ng of RNA was reverse-transcribed using the High Capacity cDNA Synthesis Kit (Applied Biosystems #4368813). Taqman expression assays were used for detection. The expression of 18S (Applied Biosystems #4319413E) was used for normalization of gene expression values. Real-time primers Runx2, Sp7 (Osx), Bglap1 (Ocn) and Smad 7 were obtained from Applied Biosystems (Mm00501580_ml, Mm00504574_ml, Mm03413826_ml and Mm00484742_ml respectively). Quantification was determined using the ΔΔCT method and normalized to the untreated sample.

| Molecule | enhancement of BMP-2 induced ALP expression (screen hit) (C2C12 cells) | Runx2 and Osx mRNA, basal levels (MC3T3 cells; TGFβ1 added to MC3T3 cells) | Smad-7 levels (MC3T3 cells; factor alone) |
| --- | --- | --- | --- |
| C=C[C@H]1C[N@@]2CC[C@H]1C[C@H]2[C@H](O)c1ccnc2ccc(OC)cc12 [quinine] | identified in all three analyses | – | – |
| CCCCC[C@H](O)CC[C@H]1[C@H](O)CC(=O)[C@@H]1CCCCCCC(=O)O [13, 14-Dihydro-prostaglandin E1] | enhanced ALP expression | – | – |
| C/C(=C\c1ccc(C(=O)O)cc1)c1ccc2c(c1)C(C)(C)CCC2(C)C [TTNPB] | identified in all three analyses | – | – |
| O=C1NC(=O)C(c2ccccc2)(c2ccccc2)N1 [phenytoin] | identified in all three analyses | – | – |
| CCCCC[C@H](O)/C=C/[C@H]1[C@H](O)CC(=O)[C@@H]1C/C=C\CCCC(=O)O [prostaglandin E2] | enhanced ALP expression | – | – |
| CCCCC[C@H](O)/C=C/[C@H]1[C@H](O)CC(=O)[C@@H]1CCCCCCC(=O)O [prostaglandin E1] | identified in all three analyses; also recorded: enhanced ALP expression | – | – |
| CCCCCCCCCCCCCCC[C@@H](O)[C@H](CO)NC(C)=O [C2 dihydroceramide] | identified in all three analyses | – | – |
| COc1c(C)c2c(c(O)c1C/C=C(\C)CCC(=O)O)C(=O)OC2 [mycophenolic acid] | identified in all three analyses | – | – |
| Oc1ccc(C=Cc2cc(O)cc(O)c2)cc1 [resveratrol] | notable hits among the top 45 compounds | – | – |
| TGFβ1: transforming growth factor (TGF)-β1, anti-inflammatory cytokine used as antagonist of osteoblast differentiation | – | reduces basal levels | no apparent affect |
| COc1c(C)c2c(c(O)c1C/C=C(\C)CCC(=O)OCCN1CCOCC1)C(=O)OC2 [mycophenolate mofetil] | identified in all three analyses | – | – |
| CC[C@@H]1/C=C(\C)C[C@H](C)C[C@H](OC)[C@H]2O[C@@](O)(C(=O)C(=O)N3CCCC[C@H]3C(=O)O[C@H](/C(C)=C/[C@@H]3CC[C@@H](O)[C@H](OC)C3)[C@H](C)[C@@H](O)CC1=O)[C@H](C)C[C@@H]2OC [FK-520] | also identified but was not among the top hits | – | – |
| C=C(c1ccc(C(=O)O)cc1)c1cc2c(cc1C)C(C)(C)CCC2(C)C [bexarotene] | identified in all three analyses | – | – |
| CCCCC[C@H](O)/C=C/C1=C(C/C=C\CCCC(=O)O)C(=O)CC1 [prostaglandin B2] | identified in all three analyses | – | – |
| COC(=O)C1=C(C)NC(C)=C(C(=O)OCCSc2ccccc2)C1C (stereo not drawn) [PCA 4248] | identified in all three analyses | – | – |
| CC1=C(/C=C/C(C)=C/C=C/C(C)=C\C(=O)O)C(C)(C)CCC1 [13-cis retinoic acid] | identified in all three analyses | – | – |
| CCCCC[C@H](O)/C=C/C1=C(CCCCCCC(=O)O)C(=O)CC1 [prostaglandin B1] | enhanced ALP expression | – | – |
